Assay results as given in patent US7129208B2, “Synthetic ion channels” (Washington University, priority 2002, dated 2006).
Values joined by “and” are separate entries in the source; they are usually repeats but may differ in a detail not shown here. Equal entries are not always repeated. The star is where a group is joined. (C18H37)2NCOCH2OCH2CO = CCCCCCCCCCCCCCCCCCN(CCCCCCCCCCCCCCCCCC)C(=O)COCC(=O)*; OBn = c1ccc(CO*)cc1

Columns and labels:
[1] = Chloride release from liposomes (chloride-specific electrode); type: biochemical; conditions: for chloride release / efflux from liposomes: unilamellar liposomes 182±12 nm
Procedure: Liposomes were prepared by reverse-phase evaporation^26 as previously reported.^27 Cl^− release was determined with a resin, chloride-specific electrode. Ion transport, mediated by (C18H37)2NCOCH2OCH2CO-GGGPGGG-OCH2Ph (SEQ ID NO.: 2), was studied in unilamellar liposomes of 182±12 nm average dimension. […] Neither the anchor-GGGLGGG (SEQ ID NO.: 3) compound nor the anchor-GGG compound retains the kink believed to be present in (C18H37)2NCOCH2OCH2CO-GGGPGGG-OCH2Ph (SEQ ID NO.: 2) owing to the presence of the proline residue.
Substituting an impermeant external ion (SO4^=) for a permeant one (NO3^−) will generate a membrane potential that inhibits Cl^− release. Thus, replacing nitrate by sulfate in the aqueous medium produced a 5-fold reduction in chloride efflux (data not shown).

RAW 264.7 cells [2] = assay: Intracellular calcium, Fura-2 fluorescence ratio method; conditions: 46 μM or 92 μM applied at time zero
Procedure: We determined cell volume from 0.5 micron image stacks collected at 30 second intervals and calculated the time-dependent volume changes that are shown in FIG. 7B. […] RAW 264.7 cells (American Type Culture Collection, Manassas Va.) were plated into microscope chambers in Dulbeccos Minimal Essential Media with antibiotics and 10% fetal calf serum and allowed to recover over night at 5% CO2. Prior to experiment they were transferred to Hanks buffered saline (10 mM HEPES, pH 7.0) and placed into the thermostated microscope stage (37° C.) and permitted to equilibrate for 10 min. Cell volume was monitored and corrected for changes in cell geometry by optical sections at 0.5 micron steps from the glass surface to the top of the cell (typically 5–7 sections). Images were collected using a Zeiss 100 M Axovert microscope, a 12-bit Sensi-Cam, and analyzed using Slidebook 3.0 (Intelligent Imaging Innovations, Inc. Cambridge, Mass.). Cell volume was calculated by summing the intracellular surface for each image in the stack of sections. […] In FIG. 7B the cellular volume changes were followed by comparing sequential series of z-stacks from optical sections and normalized to total cell volume at the beginning of the experiment (t=0). […] Intracellular calcium was followed using Fura-2 fluorescence ratio method. […]

[3] = Voltage clamp in planar lipid bilayers; type: biochemical; conditions: for maximum conductance (chloride diffusion pathway): linear current-voltage relationship, 63 μM in b201
Procedure: The chloride selectivity of (C18H37)2NCOCH2OCH2CO-GGGPGGG-OCH2Ph (SEQ ID NO.: 2) was assessed by voltage clamp methods in planar phospholipid bilayers. Addition of (C18H37)2NCOCH2OCH2CO-GGGPGGG-OCH2Ph (SEQ ID NO.: 2) to planar bilayer lipids produced large currents within seconds in a 450:150 mM KCl ion gradient. The sign and the magnitude of this current indicated Cl^− transport by a nanoSiemen-sized channel. A linear current-voltage relationship gave a maximum conductance of 1.3±0.1 nS. The reversal potential, Erev, was 28±0.45 mV, corresponding to the calculated chloride Nernst potential, ECl, of 28.2 mV. This confirms the >10:1 Cl^−/K^+ selectivity observed in liposomes. The ion selectivity and conductivity indicate that (C18H37)2NCOCH2OCH2CO-GGGPGGG-OCH2Ph (SEQ ID NO.: 2) forms a large, stable, anion selective aqueous pore in bilayer membranes.
Planar lipid bilayers were formed by standard methods. (C18H37)2NCOCH2OCH2CO-GGGPGGG-OCH2Ph (SEQ ID NO.: 2) was applied to the cis chamber at 60 μM (micromolar) with a 450 mM/150 mM KCl gradient present across the membrane. Seconds later Cl^− currents appeared and voltage was varied from +20 to −2 mV. Fractional open time was computed using the computer programs Fetchan and pStat (Axon Instruments, CA).
The chloride selectivity of (C18H37)2NCOCH2OCH2CO-GGG-P-GGG-OCH2Ph (SEQ ID NO.: 2) was assessed by voltage clamp methods in planar lipid bilayers prepared as described in P. Schlesinger, et al., Proc. Natl. Acad. Sci. 94, 11357 (1997). The addition of 63 μM (C18H37)2NCOCH2OCH2CO-GGG-P-GGG-OCH2Ph (SEQ ID NO.: 2) produced large currents within seconds in a 450:150 mM KCl ion gradient (FIG. 8a). […] The reversal potential, Erev, was 28±0.45 mV, corresponding to the calculated chloride Nernst potential, ECl, of 28.2 mV (FIG. 8c). This confirms the >10:1 Cl^−/K^+ selectivity observed in liposomes. The ion selectivity and conductivity indicate that (C18H37)2NCOCH2OCH2CO-GGG-P-GGG-OCH2Ph (SEQ ID NO.: 2) forms a large, stable, anion selective aqueous pore in bilayer membranes.

[4] = Carboxyfluorescein fluorescence dequenching: pore activation and size, dextran block; type: biochemical
Procedure: Fluorescence dequenching was used to study pore activation and size as previously described in Saito et al. CF dequenching reflects the kinetics of pore activation and dequenching is accurately fit by this equation. Ft=F0+A1(1−e^−(t/τ))+mt
This exponential model requires that the concentration dependence of quenching will reflect the molecularity of pore activation (FIG. 9a, 9b). […] We infer therefore that at ˜100 μM, the active pore involves two molecules of (C18H37)2NCOCH2OCH2CO-GGG-P-GGG-OCH2Ph (SEQ ID NO.: 2). […] Size-specific dextran block (using ˜6–26 Å diameter molecules) confirmed an apparent pore diameter of 6.6 A (FIG. 9d, 9e) (M. Saito, S. J. Korsmeyer, P. H. Schlesinger, Nature Cell Biology, 553 (2000); S. Rex, G. Schwarz, Biochemistry37, 2336 (1998)).

[5] = Pore size from molecular models and bilayer conductance data
RAW 264.7 cells [6] = assay: Cell volume regulation in a monocytic cell line (optical sections)
Procedure: We determined cell volume from 0.5 micron image stacks collected at 30 second intervals and calculated the time-dependent volume changes that are shown in FIG. 7B. […] RAW 264.7 cells (American Type Culture Collection, Manassas Va.) were plated into microscope chambers in Dulbeccos Minimal Essential Media with antibiotics and 10% fetal calf serum and allowed to recover over night at 5% CO2. Prior to experiment they were transferred to Hanks buffered saline (10 mM HEPES, pH 7.0) and placed into the thermostated microscope stage (37° C.) and permitted to equilibrate for 10 min. Cell volume was monitored and corrected for changes in cell geometry by optical sections at 0.5 micron steps from the glass surface to the top of the cell (typically 5–7 sections). Images were collected using a Zeiss 100 M Axovert microscope, a 12-bit Sensi-Cam, and analyzed using Slidebook 3.0 (Intelligent Imaging Innovations, Inc. Cambridge, Mass.). Cell volume was calculated by summing the intracellular surface for each image in the stack of sections. […] In FIG. 7B the cellular volume changes were followed by comparing sequential series of z-stacks from optical sections and normalized to total cell volume at the beginning of the experiment (t=0). […] Intracellular calcium was followed using Fura-2 fluorescence ratio method. […] Depolarization dependent increase in cytosolic calcium was initiated by the switch to 100 mM KCl at 200 seconds (open triangle).

In the case of “(C18H37)2NCOCH2OCH2CO-Gly-Gly-Gly-OCH2Ph [(C18H37)2NCOCH2OCH2CO-GGG-OCH2Ph]”, the “reduction of Cl- release” value ([1]; compared with the GGGPGGG compound) is reported as 6 fold.

With “(C18H37)2NCOCH2OCH2CO-Gly-Gly-Gly-Pro-Gly-Gly-Gly-OCH2Ph ({(C18H37)2NCOCH2OCH2CO}-GGGPGGG-OBn; SMILES CCCCCCCCCCCCCCCCCCN(CCCCCCCCCCCCCCCCCC)C(=O)COCC(=O)NCC(=O)NCC(=O)NCC(=O)N1CCC[C@H]1C(=O)NCC(=O)NCC(=O)NCC(=O)OCc1ccccc1) [(C18H37)2NCOCH2OCH2CO-GGGPGGG-OCH2Ph]” the “change in cytosolic calcium” value (RAW 264.7 cells [2]) was “small increases”, the voltage dependent gating ([3]; 60 μM in cis chamber, 450 mM/150 mM KCl gradient, voltage +20 to -2 mV) was “voltage dependent gating” and the “reversal potential, Erev” value ([3]; 450:150 mM KCl ion gradient, calculated chloride Nernst potential 28.2 mV) was 28±0.45 mV. For the same compound, the “maximum conductance (chloride diffusion pathway)” value ([3]; 450:150 mM KCl ion gradient) was 1.3±0.1 nS, the “maximum conductance (chloride diffusion pathway)” value ([3]; 450:150 mM KCl ion gradient, listed as (C18H37)2NCOCH2OCH2CO-GGG-P-GGG-OCH2Ph) was 1.3±0.01 nS and the “molecules in the active pore” value ([4]; at ~100 μM, inferred) was “two”. For the same compound, the apparent pore diameter ([4]; size-specific dextran block, ~6–26 Å diameter molecules) was 6.6 A, the “reduction in chloride efflux on replacing nitrate by sulfate in the aqueous medium” value ([1]; external SO4 instead of NO3, data not shown) was 5 fold and the “chloride release / efflux from liposomes” value [1] was “rapid, concentration dependent, and went to completion”. The pore size ([5]; molecular models, conductance data and dextran block taken together) was 6–8 Å, the pore diameter ([5]; suggested by molecular models and bilayer conductance data) was 6.5–8 Å and the cell volume decrease (RAW 264.7 cells [6]; 46 μM added at t=0, normalized to total cell volume at t=0) was 20% and 20±0.5%. The “extent of cell volume decrease, of the initial cell volume” value (RAW 264.7 cells [6]; 100 μM) was 20–25% and the “effect on cellular volume” value (RAW 264.7 cells [6]; mammalian cells) was “modulates cellular volume”.

With “(H37C18)2NCOCH2OCH2CO-Gly-Gly-Gly-Leu-Gly-Gly-Gly-OCH2Ph ({(H37C18)2NCOCH2OCH2CO}-GGGLGGG-OBn) [anchor-GGGLGGG]” the “chloride release / efflux from liposomes” value [1] was “dramatically reduced”.

With `CC(C)[C@@H]1NC(=O)[C@H](C)OC(=O)[C@@H](C(C)C)NC(=O)[C@@H](C(C)C)OC(=O)[C@H](C(C)C)NC(=O)[C@H](C)OC(=O)[C@@H](C(C)C)NC(=O)[C@@H](C(C)C)OC(=O)[C@H](C(C)C)NC(=O)[C@H](C)OC(=O)[C@@H](C(C)C)NC(=O)[C@@H](C(C)C)OC1=O` [valinomycin, reference compound] the “effect on membrane potential inhibition of net chloride movement” value ([1]; added to liposomes with the channel compound in sulfate medium) was “permitted the remaining chloride to exit the liposomes”.
